No end group written: not given here. *: point of attachment. Biotin = O=C1N[C@H]2[C@H](CS[C@H]2CCCCC(=O)*)N1
What was measured:
Atg5^−/− MEF [1] = assay: Exosome production (dynamic light scattering, Western blot), Example 2; type: cell-based, mouse; conditions: BAF or ConA 12 h
Protocol: (§1) Exosomes were enriched by differential centrifugation as previously described (Thery et al., 2006). Briefly, MEF or MDA-MB-231 cells were cultured in media containing FBS depleted of exosomes by centrifugation at 100,000 g for 16 h (Thery et al., 2006). To purify exosomes supernatant from cell cultures was centrifuged at 400 g (7 min), 2000 g (10 min) and 10,000 g (30 min, SW32 rotor). At each step the supernatant was recovered. After centrifugation at 100,000 g (1 h 10 min, SW32 rotor) the supernatant was removed and the pellet was resuspended. The pellet was washed in PBS by a final centrifugation at 100,000 g (20 min, TLA100.3 rotor). The exosome-enriched pellet was re-suspended in PBS for further analyses.
(§2) Preparations of enriched exosomes were analyzed by dynamic light scattering on a Protein Solutions Dynapro Instrument using Dynamics V6 software. Data were acquired every 10 seconds at 4° C. and 10% laser power for at least 200 seconds per sample. The intensity (Cnt/s) and size (nm) were generated automatically by the instrument.
Preparations of enriched exosomes were analyzed using a Nanosight LM10 instrument with Nanoparticle Tracking Analysis software Version 2.3. Measurement temperature was 22° C. and time setting was 90 seconds. The analysis conditions were set as: Blur 3×3, Detection Threshold 3, Min Track Length 9, and Min Expected Size 30 nm. […]

V0-ATPase complex = molecular target: T1, V0-ATPase complex (Mus musculus, UniProt P63082); assay: Lysotracker staining of cells with V0-ATPase inhibitors; type: cell-based; conditions: MEF; 12 h treatment
T1 construct: endogenous in cells; MEF inferred)
T1 sequence (P51863 whole entry): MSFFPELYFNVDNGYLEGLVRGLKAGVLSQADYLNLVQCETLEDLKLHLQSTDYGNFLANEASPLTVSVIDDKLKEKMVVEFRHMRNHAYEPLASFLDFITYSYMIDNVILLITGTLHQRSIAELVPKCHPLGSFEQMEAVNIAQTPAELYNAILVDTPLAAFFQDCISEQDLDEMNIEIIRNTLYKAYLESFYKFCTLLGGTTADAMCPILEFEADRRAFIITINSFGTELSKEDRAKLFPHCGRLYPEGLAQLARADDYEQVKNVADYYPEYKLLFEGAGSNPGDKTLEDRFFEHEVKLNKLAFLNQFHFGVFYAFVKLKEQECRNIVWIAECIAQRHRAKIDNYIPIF
T1 sequence (Q9Z1G4 whole entry, further chain): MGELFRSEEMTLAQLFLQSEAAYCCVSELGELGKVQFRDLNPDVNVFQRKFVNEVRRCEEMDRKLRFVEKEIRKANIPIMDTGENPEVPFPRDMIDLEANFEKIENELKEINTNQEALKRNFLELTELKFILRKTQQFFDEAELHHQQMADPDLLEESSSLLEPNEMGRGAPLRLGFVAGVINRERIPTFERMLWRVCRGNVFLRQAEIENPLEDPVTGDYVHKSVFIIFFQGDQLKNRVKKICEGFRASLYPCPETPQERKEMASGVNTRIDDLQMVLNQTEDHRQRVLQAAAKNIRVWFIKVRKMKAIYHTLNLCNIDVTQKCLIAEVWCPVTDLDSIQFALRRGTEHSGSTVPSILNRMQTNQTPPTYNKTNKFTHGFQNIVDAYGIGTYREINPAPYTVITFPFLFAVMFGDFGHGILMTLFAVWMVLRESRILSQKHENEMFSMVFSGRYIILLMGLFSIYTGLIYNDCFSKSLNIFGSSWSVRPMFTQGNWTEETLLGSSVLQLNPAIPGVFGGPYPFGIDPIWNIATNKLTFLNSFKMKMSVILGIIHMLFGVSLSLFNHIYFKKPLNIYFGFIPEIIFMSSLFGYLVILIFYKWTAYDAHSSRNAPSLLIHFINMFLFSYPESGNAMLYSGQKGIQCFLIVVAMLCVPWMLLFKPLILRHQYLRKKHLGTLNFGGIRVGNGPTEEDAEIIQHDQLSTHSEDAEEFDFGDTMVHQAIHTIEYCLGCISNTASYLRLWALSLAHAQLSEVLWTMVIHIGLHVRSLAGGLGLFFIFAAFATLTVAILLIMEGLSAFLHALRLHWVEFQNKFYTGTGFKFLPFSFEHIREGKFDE
T1 sequence (Q91V37 whole entry, further chain): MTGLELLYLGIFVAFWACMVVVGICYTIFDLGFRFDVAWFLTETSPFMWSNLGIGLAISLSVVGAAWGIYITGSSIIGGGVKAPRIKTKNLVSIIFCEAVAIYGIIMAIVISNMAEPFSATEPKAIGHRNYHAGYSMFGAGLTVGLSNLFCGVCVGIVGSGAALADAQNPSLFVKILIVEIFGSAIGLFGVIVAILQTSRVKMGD
T1 sequence (P63082 whole entry): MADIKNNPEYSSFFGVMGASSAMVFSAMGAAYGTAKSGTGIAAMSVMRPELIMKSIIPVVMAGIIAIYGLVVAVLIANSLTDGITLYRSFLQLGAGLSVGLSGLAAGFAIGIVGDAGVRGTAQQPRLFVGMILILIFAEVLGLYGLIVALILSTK
Text: If increased MVB acidification in Atg5^−/− cells causes the drop in exosome release, blocking acidification of MVB may promote exosome release.

exosomes = assay: Packaging of LC3 fusion proteins into exosomes (luciferase light, Western blot of exosomes); type: cell-based
Text: FIG. 28 D and E show Western blots of exosomes transfected with Luciferase or Luciferase-LC3 fusion (D), or dsRed or dsRed-LC3 fusion (E). […] The scFv in this experiment was anti-TDP-43 VH7 antibody scFv. Detection of the fusion was by Western blot with anti-LC3 antibody or antibody vs. HA tag incorporated into the linker region in the fusion. […] In FIG. 29 C, expression of scFv-LC3 construct in cells was achieved using lentivirus. […] In FIG. 29 C, cells were expressing anti-TDP-43 antibody scFv clone Vh7. […] The inventors hypothesized that exosomes may deliver intrabody-LC3 chimeras with high efficiency to tissues like liver, small intestine and kidney (IV), and if injected (for example) into the spinal cord (as ASOs or AAV in patients in neurodegeneration), throughout the spinal cord and the brain. […]
Nucleic acids encoding the fusion constructs were stably transduced into cells using lentivirus to generate stable expression using the CMV promoter. […] After this time point cells were lysed and levels of cytoplasmic TDP-43 were measured by western blot after elimination of nuclei. […]
The data are for 3 scFv fused to LC3 derived from anti-TDP-43 VH7, anti-TDP-43 41D1, and anti-Tau 4E4. […] Cells were transduced with scFv-LC3 conjugates, and exosomes were purified from these and analyzed by Western blot. […]

recombinant LC3 [2] = conditions: 10 nmoles peptide, 100 ng recombinant LC3
Protocol: (SEQ ID NO: 20). Fifteen μl of Dynabeads® MyOne™ Streptavidin T1 (Cat #65601, ThermoFisher) were washed with PBS, then 10 nmoles of biotinylated peptides and 100 ng of recombinant LC3 were added. The mixture was rotated at 4 C over night. The beads were then washed with PBS 3 times and collected for further western analysis.

recombinant LC3 [3] = conditions: competitive excess of peptide; cell lysate
Protocol: In brief, 0.5 μg of His-tagged recombinant LC3 (His-tag, Cat #ADI-APR-100-0200, Enzo Life Sciences) was rotated in 50 μl with 5 μl of His-tagged Dynabeads (Cat #10103D, Thermofisher) in a binding/wash buffer (50 mM Sodium Phosphate, pH 8.0, 150 mM NaCl, 0.01% Tween®-20, 0.5% Triton X-100) at room temperature (RT) for 10 min. Then 150 μl of binding/wash buffer containing 5% BSA was added to the tubes and rotated for 5 minutes. Tubes were placed on a magnet and supernatant discarded. Cell lysate (100 ul, 150 ug) collected in Pull-down Buffer (3.25 mM Sodium phosphate pH 7.4, 70 mM NaCl, 0.01% Tween®-20, 0.5% Triton X-100) was incubated on a roller for 10 min. Supernatant was discarded and beads were washed 4 times with 300 μl Binding/Wash Buffer. His-LC3 was eluted with 150 mM Imidazole, 50 mM Sodium phosphate pH 8.0, 300 mM NaCl, 0.01% Tween®-20 with gentle shaking for 5 min. Supernatants were separated from beads on a magnet. The median intensities of bands for p62, ATP6V1E1 and background were quantified over 3 independent experiments using ImageQuantTL (GE Healthcare).
Experiments with competitive peptides were performed as above, except 50 μmoles of peptide was added during incubation with cell lysate. […] (SEQ ID NO: 20).

Atg5^−/− MEF [4] = assay: Exosome production (nanoparticle tracking, dynamic light scattering, Western blot), Example 1; type: cell-based, mouse; conditions: Chloroquine 100 μM 16 h, NH4Cl 20 mM 30 min, Concanamycin, siRNA
Protocol: Exosomes were enriched by differential centrifugation as previously described (Thery et al., 2006). Briefly, cells were cultured in media containing 10% FBS previously depleted of exosomes by centrifugation at 100 000 g for 16 h (Thery et al., 2006). To purify exosomes, supernatant from cell cultures was centrifuged at 300 g (10 min), 2000 g (10 min) and 10,000 g (30 min, SW32 rotor). At each step the supernatant was recovered. After centrifugation at 100 000 g (1 h 10 min, SW32 rotor) the supernatant was removed and the pellet was resuspended. The pellet was washed in PBS by a final centrifugation at 100 000 g (20 min, TLA100.3 rotor). The exosome-enriched pellet was re-suspended in PBS for further analyses.
Preparations of enriched exosomes were analyzed using either a Nanosight (FIG. 1A,C) or a ParticleMetrix Zetaview Nanoparticle tracking instrument (all other graphs). […]
The Zeta View Nanoparticle Tracking instrument (ParticleMetrix) is calibrated for experiments following every instrument start-up. […] If the sample falls within the acceptable reading concentration range, video acquisition and analysis was performed using the following parameters. Acquisition Parameters: Sensitivity (85), Shutter speed (40), Frame rate per second (30), Resolution (Highest), Positions measured (11). […]
The analysis reports containing the particle size (nm) and concentration (particles/ml) were generated automatically. The particles between 45 nm and 105 nm were summed to quantify exosome-sized particles. In experiments in FIG. 5N,O measuring exosome production after treating cells with NH4Cl or Chloroquine for short time periods, background readings from exosome-depleted media alone were subtracted. […]

wild-type MEF = assay: Exosome production (dynamic light scattering, Western blot) with pp242; type: cell-based, mouse; conditions: pp242 1 μM
Protocol: as §1, §2

stress granules (G3BP1+) = assay: Stress granules remaining with scFv-LC3 fusion with or without mTOR inhibitor INK128; type: cell-based; conditions: arsenite 1 h, recovery 30 min, G3BP1+ staining
Protocol: Nucleic acids encoding the fusion constructs were stably transduced into cells using lentivirus to generate stable expression using the CMV promoter. Cells were cultured in Lonza Ultraculture medium for 24 h and exosomes were harvested by tangential flow filtration concentration and dialysis on a 750 kDa pore size. Exosomes were then incubated with target cells between 2-24 h. After this time point cells were lysed and levels of cytoplasmic TDP-43 were measured by western blot after elimination of nuclei. […] for 30 min and cells were fixed for immunofluorescence to measure the persistence of stress granules using antibodies targeting G3BP1, PABP or DDX3. The number of stress granules were compared to fusions like scFv VH7 with and without LC3. In some experiments cells were pre-treated for 2-24 h with mTOR inhibitors to induce autophagy.
Experiments were performed to assess whether elimination of anti-TDP-43 VH7 scFv targets by autophagy, triggered by scFv-LC3 fusion constructs, could be further enhanced by treatment with an autophagy-activating agent. In this example, mTOR inhibitor INK128 was used as the autophagy-activating agent.
Cells were transfected with scFv versus TDP-43 fused to LC3, and treated or not treated with the mTOR inhibitor INK128 to assess autophagy activation. […]

CO/C1=C\C(C)=C\[C@@H](C)[C@@H](O)[C@@H](C)C/C(C)=C/C=C/[C@H](OC)[C@@H]([C@@H](C)[C@@H](O)[C@H](C)[C@@]2(O)C[C@@H](O)[C@H](C)[C@@H](C(C)C)O2)OC1=O [Bafilomycin A1]
exosome production of Atg5^−/− cells (Atg5^−/− MEF [1]): restored exosome production | staining of cells with Lysotracker (V0-ATPase complex): abrogated staining of cells with Lysotracker

HJ8.5-LC3a: anti-Tau scFv HJ8.5 fused via linker and HA tag to LC3a (SEQ ID NO: 57)
packaging of construct into exosomes (exosomes): packaged into exosomes

biotin-SGGDDDWTHLSS [p62 LIR motif peptide]
pulldown of recombinant LC3 by biotinylated peptide (recombinant LC3 [2]): pulled down recombinant LC3 | competition of ATP6V1E1 pulldown by recombinant LC3 (recombinant LC3 [3]): had no effect | competition of p62 pulldown by recombinant LC3 (recombinant LC3 [3]): competed with endogenous p62 binding

Biotin-RCRKQDFPLVKA [putative ATP6V1E1 LIR motif peptide]
pulldown of recombinant LC3 by biotinylated peptide (recombinant LC3 [2]): bound at background levels | competition of ATP6V1E1 pulldown by recombinant LC3 (recombinant LC3 [3]): did not affect binding | competition of p62 pulldown by recombinant LC3 (recombinant LC3 [3]): did not affect binding

Biotin-RCRKAILPLQKA [control mutated peptide]
pulldown of recombinant LC3 by biotinylated peptide (recombinant LC3 [2]): bound at background levels

Cl.N [NH4Cl]
exosome production in Atg5^−/− cells (Atg5^−/− MEF [4]): rescued exosome production

Concanamycin A
exosome production in Atg5^−/− cells (Atg5^−/− MEF [4]): rescued exosome production | exosome production of Atg5^−/− cells (Atg5^−/− MEF [1]): restored exosome production | staining of cells with Lysotracker (V0-ATPase complex): abrogated staining of cells with Lysotracker

CCN(CC)CCCC(C)Nc1ccnc2cc(Cl)ccc12 (centres unmarked) [Chloroquine]
exosome production in Atg5^−/− cells (Atg5^−/− MEF [4]): rescued exosome production

CC(C)n1nc(-c2cc3cc(O)ccc3[nH]2)c2c(N)ncnc21 [pp242]
exosome production (wild-type MEF): increased exosome production

CC(C)n1nc(-c2ccc3oc(N)nc3c2)c2c(N)ncnc21 [INK128]
% of stress granules remaining (stress granules (G3BP1+)): did not have a measureable effect

— patent US20240299362A1, “EXOSOME PACKAGING AND TARGETED AUTOPHAGY” (University of Ottawa, priority 2017, published 2024)
